Data taken from patent US9302999B2, “Substituted triazoles as herbicides” (E. I. DU PONT DE NEMOURS AND COMPANY, priority 2012, dated 2016).

Columns and labels:
Type in all cases: in vivo
[1] = test system: nightshade (eastern black nightshade, Solanum ptycanthum); assay: Test C pre-/postemergence: nightshade; settings: Preemergence
Summary of the method: (§1)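 Visual injury scored 0–100 (100 = complete control) against untreated controls after 13–15 greenhouse days. Surfactant-containing solvent formulations applied either to soil after sowing (loam/sand) or over 1- to 4-leaf plants, 2–18 cm tall.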

[2] = test system: wheat, winter (winter wheat, Triticum aestivum); assay: Test D pre-/postemergence: wheat, winter
Summary of the method: (§2)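 We sprayed chemicals in a surfactant-containing solvent onto silt loam at planting (preemergence) and onto 1- to 4-leaf seedlings (postemergence). Fourteen to 21 days later, each species was rated visually from 0 to 100 relative to controls.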

[3] = test system: goosegrass (Eleusine indica); assay: Test C pre-/postemergence: goosegrass; settings: Preemergence
Summary of the method: as §1

[4] = test system: foxtail, green (green foxtail, Setaria viridis); assay: Test C pre-/postemergence: foxtail, green; settings: Preemergence
Summary of the method: as §1

[5] = test system: galium (catchweed bedstraw, Galium aparine); assay: Test D pre-/postemergence: galium; settings: Postemergence
Summary of the method: as §2

[6] = test system: bromegrass, downy (downy bromegrass, Bromus tectorum); assay: Test D pre-/postemergence: bromegrass, downy
Summary of the method: as §2

[7] = test system: field poppy (Papaver rhoeas); assay: Test D pre-/postemergence: field poppy
Summary of the method: as §2

[8] = test system: windgrass (Apera spica-venti); assay: Test D pre-/postemergence: windgrass
Summary of the method: as §2

[9] = test system: Russian thistle (Salsola kali); assay: Test C pre-/postemergence: Russian thistle; settings: Preemergence
Summary of the method: as §1

[10] = test system: Russian thistle (Salsola iberica); assay: Test D pre-/postemergence: Russian thistle; settings: Postemergence
Summary of the method: as §2

[11] = 31 g ai/ha, scale of 0 to 100, 0 is no effect, 100 is complete control
[12] = 62 g ai/ha, scale of 0 to 100, 0 is no effect, 100 is complete control
[13] = 125 g ai/ha, scale 0 to 100, 0 no effect, 100 complete control
[14] = 250 g ai/ha, scale 0 to 100, 0 no effect, 100 complete control
[15] = Postemergence, 31 g ai/ha, scale 0 to 100 (0 no effect, 100 complete control)
[16] = Postemergence, 62 g ai/ha, scale 0 to 100 (0 no effect, 100 complete control)
[17] = Postemergence, 125 g ai/ha, scale 0 to 100, 0 no effect, 100 complete control
[18] = Postemergence, 16 g ai/ha, scale 0 to 100
[19] = Preemergence, 16 g ai/ha, scale 0 to 100 (0 no effect, 100 complete control)
[20] = Preemergence, 31 g ai/ha, scale 0 to 100 (0 no effect, 100 complete control)
[21] = Preemergence, 62 g ai/ha, scale 0 to 100
[22] = Preemergence, 125 g ai/ha, scale 0 to 100
[23] = 31 g ai/ha, scale 0 to 100 (0 no effect, 100 complete control)
[24] = 62 g ai/ha, scale 0 to 100 (0 no effect, 100 complete control)

## Cc1nn(-c2ccc(F)c(C(F)(F)F)c2)nc1Oc1ccnc(C(F)(F)F)c1 [Compound 147]
[1]; [11]
  Plant response rating, Nightshade: 98
[1]; [12]
  Plant response rating, Nightshade: 98
[1]; [13]
  Plant response rating, Nightshade: 98
[1]; [14]
  Plant response rating, Nightshade: 98
[2]; [15]
  Plant response rating: Wheat, Winter: 15
[2]; [16]
  Plant response rating: Wheat, Winter: 15
[2]; [17]
  Plant response rating: Wheat, Winter: 20
[2]; [18]
  Plant response rating, Wheat, Winter: 10
[2]; [19]
  Plant response rating, Wheat, Winter: 0
[2]; [20]
  Plant response rating, Wheat, Winter: 0
[2]; [21]
  Plant response rating, Wheat, Winter: 0
[2]; [22]
  Plant response rating, Wheat, Winter: 5
[3]; [11]
  Plant response rating, Goosegrass: 98
[3]; [12]
  Plant response rating, Goosegrass: 100
[3]; [13]
  Plant response rating, Goosegrass: 100
[3]; [14]
  Plant response rating, Goosegrass: 100
[4]; [11]
  Plant response rating, Foxtail, Green: 95
[4]; [12]
  Plant response rating, Foxtail, Green: 95
[4]; [13]
  Plant response rating, Foxtail, Green: 95
[4]; [14]
  Plant response rating, Foxtail, Green: 95
[5]; [23]
  Plant response rating: Galium: 65
[5]; [24]
  Plant response rating: Galium: 75
[5]; [13]
  Plant response rating: Galium: 90
[5]; 16 g ai/ha, scale 0 to 100
  Plant response rating, Galium: 55
[6]; [15]
  Plant response rating: Bromegrass, Downy: 5
[6]; [16]
  Plant response rating: Bromegrass, Downy: 15
[6]; [17]
  Plant response rating: Bromegrass, Downy: 50
[6]; [18]
  Plant response rating, Bromegrass, Downy: 5
[6]; [19]
  Plant response rating, Bromegrass, Downy: 0
[6]; [20]
  Plant response rating, Bromegrass, Downy: 5
[6]; [21]
  Plant response rating, Bromegrass, Downy: 10
[6]; [22]
  Plant response rating, Bromegrass, Downy: 15
[7]; [15]
  Plant response rating: Field Poppy: 90
[7]; [16]
  Plant response rating: Field Poppy: 100
[7]; [17]
  Plant response rating: Field Poppy: 100
[7]; [18]
  Plant response rating, Field Poppy: 90
[7]; [19]
  Plant response rating, Field Poppy: 55
[7]; [20]
  Plant response rating, Field Poppy: 75
[7]; [21]
  Plant response rating, Field Poppy: 95
[7]; [22]
  Plant response rating, Field Poppy: 100
[8]; [16]
  Plant response rating: Windgrass: 50
[8]; [17]
  Plant response rating: Windgrass: 75
[8]; [18]
  Plant response rating, Windgrass: 15
[8]; Postemergence, 31 g ai/ha, scale 0 to 100
  Plant response rating, Windgrass: 25
[8]; [19]
  Plant response rating, Windgrass: 0
[8]; [20]
  Plant response rating, Windgrass: 60
[8]; [21]
  Plant response rating, Windgrass: 100
[8]; [22]
  Plant response rating, Windgrass: 100
[9]; [11]
  Plant response rating, Russian Thistle: 0
[9]; [12]
  Plant response rating, Russian Thistle: 90
[9]; [13]
  Plant response rating, Russian Thistle: 90
[9]; [14]
  Plant response rating, Russian Thistle: 90
[10]; [23]
  Plant response rating: Russian Thistle: 85
[10]; [24]
  Plant response rating: Russian Thistle: 80
[10]; [13]
  Plant response rating: Russian Thistle: 80
[10]; 16 g ai/ha, scale 0 to 100
  Plant response rating, Russian Thistle: 45
